What was measured:
SREBP-1 [1] = assay: SREBP-1 proteolysis (maturation) assay, Western immunoblot of nuclear fractions, HH-25 hepatocytes; type: cell-based, human; conditions: for induction of SREBP-1 maturation (increase in mature SREBP-1), in words: HH-25 hepatocytes, sterol independent
Protocol: FIGS. 2A-2C illustrate effects of TNF-α sphingomyelinase and C2-ceramide on the kinetics of SREBP-1 maturation—FIGS. 2A-2C is explained in more detail as follows: Cells were maintained in media supplemented with 1 μg/ml 25-hydroxy cholesterol and 15 μg/ml cholesterol for 24 hours before the experiment. The cells were treated for the indicated time as described in materials and methods. The cells were then harvested in PBS, pelleted and frozen. Lysis and nuclear fractionation were performed as described. Nuclear fractions (50 μg of protein) were electrophoresed on a 7.5% polyacrylamide gel and transferred to a PVDF membrane. Western blotting was performed as described. Band intensity was quantified via densitometry. Error bars represent ±one standard deviation from the mean. 2A) The kinetics of SREBP maturation as measured by the increase in mature SREBP-1 are plotted. Fold increase was calculated by comparing each time point to the corresponding control value (TNF-α is represented by stippled bars, bacterial sphingomyelinase is represented by light gray bars and C2-ceramide by the dark bars.) 2B) Cells were treated with TNF-α (10 ng/ml) and prepared as described above. The bands corresponding to the precursor and mature forms of SREBP-1 were quantified and their ratio plotted. 2C) Representative Western blots from which numerical data was derived. Incubation time is indicated above and applies to all conditions. The membranes were exposed to film for 15 seconds. P and M denote the precursor and mature forms of SREBP-1 respectively.
FIGS. 3A-3C show effects of TNF-α, sphingomyelinase and C2-ceramide concentration on SREBP-1 maturation—The FIGS. 3A-3C are explained in more detail as follows. […] Nuclear pellets were prepared and electrophoresed (50 μg of protein). The bands corresponding to the precursor and mature forms of SREBP-1 were quantified. The precursor to mature ratios were normalized to a single control to facilitate comparison. The control ratio was arbitrarily assigned a value of 1. A Unit of sphingomyelinase activity hydrolyzes 1.0 μmol of sphingomyelin per minute at 37° C. FIG. 3A (ng/ml TNF-α); FIG. 3B (mUnits of sphingomyelinase); FIG. 3C (micromolar C2-ceramide).
HH-25 cells were grown in alpha-minimal essential media supplemented with 100 units/ml penicillin, 100 µg/ml streptomycin, […], 0.1 μM selenium, 5.5 μg/ml transferrin, 0.5 μg/ml linoleic acid and 10% fetal bovine serum (media A). The cells were incubated in serum free F10 media for 30 to 60 minutes prior to initiating treatment with TNF-α, C2-ceramide or sphingomyelinase.
Following treatment, the cells were washed with 5 ml of PBS and pelleted at 1500×g for 10 minutes at 4° C. The pellet was stored at −70° C. and lysed in 0.5 ml buffer A (10 mM HEPES pH 7.4, 5 mM EDTA, 0.25 mM EGTA, 50 mM NaF, 7 mM β-mercaptoethanol, 0.35M sucrose, 0.1% NP-40 and protease inhibitors 1 mM PMSF, 2 μg/ml aprotinin, 10 μg/ml leupeptin and 5 μg/ml pepstatin). The lysate was centrifuged at 12,000×g for 15 minutes at 4° C. to prepare a nuclear fraction. The protein concentration of these samples was determined by the method of Lowry et al. al. (19).
50 μg of nuclear protein was separated by gel electrophoresis on a 7.5% polyacrylamide gel. Gels were calibrated by high range molecular weight markers (Bio-Rad product #161-0303, New York, N.Y.) which were transferred to a polyvinyl difluoride (PVDF) membrane and visualized with coomassie staining. Rabbit polyclonal antibodies against SREBP-1 were used at 0.5 μg/ml according to the instructions of the manufacturer. The antibody was visualized with horseradish peroxidase conjugated anti-rabbit IgG made in donkey (Amersham) using the Enhanced Chemiluminescence (ECL) Western Blotting Detection System Kit (Amersham). PVDF membranes were exposed to Hyperfilm ECL (Amersham) for the indicated time. Immunoblots were quantified via densitometry performed on a PDI densitometer scanner (model 20J7) coupled to a SPARC IRC workstation.

SREBP-1 [2] = assay: Indirect immunofluorescence of SREBP-1 subcellular localization; type: cell-based, human; conditions: 30 minutes after initiating treatment; TNF-α 10 ng/ml, sphingomyelinase 100 mUnits, C2-ceramide 10 μM
Protocol: FIGS. 5A-5D show indirect immunofluorescence of SREBP-1. FIGS. 5A-5D are discussed in more detail as follows. SREBP-1 was visualized with rabbit polyclonal antibodies directed towards the N-terminal DNA binding domain which is common to both the precursor and mature forms. Cells were maintained in media supplemented with 1 μg/ml 25-hydroxycholesterol and 15 μg/ml cholesterol for 24 hours before the experiment. Immunofluorescence was performed as described. All magnifications are 40× and all photographs were taken of samples that were fixed 30 minutes after initiating treatment. FIG. 5A) Control cells, FIG. 5B) Cells treated with TNF-α (10 ng/ml), FIG. 5C) Cells treated with sphingomyelinase (100 mUnits), FIG. 5D) Cells treated with C2-ceramide (10 μM).
Cultured HH-25 cells were grown on coverslips and treated as described. After treatment, the cells were washed 3×5 minutes with PBS containing 1 mM MgCl2 and 0.1 mM CaCl2 (solution A). The cells were fixed with 3% paraformaldehyde in solution A for 10 minutes and permeabilized with 0.5% Triton X-100 in solution A for 6 minutes at room temperature. The coverslips were then washed 3×5 minutes with solution A.
Primary antibody (anti-SREBP1) was used at a dilution of […] in PBS and applied for 1 hour with gentle shaking. The cells were washed as above and a FITC conjugated anti-rabbit IgG secondary antibody, was applied for ½ hour according to the instructions of the manufacturer. The coverslips were washed, mounted on microscope slides and were viewed and photographed at the indicated magnification on a Zeiss Axiovert 25 fluorescence microscope.

SREBP-1 [3] = assay: Electrophoretic mobility shift assay, SREBP-1 binding to SRE probe; type: cell-based, human; conditions: TNF-α 10 ng/ml, sphingomyelinase 100 mUnits, C2-ceramide 10 μM
Protocol: FIGS. 6A-6D show electrophoretic mobility shift assays. FIGS. 6A-D are explained in more detail as follows. Cells were maintained in sterol supplemented media. Nuclear pellets were prepared and assayed as described in materials and methods. Probe that has been bound by mature SREBP-1 is indicated as “Bound”. Unbound probe is indicated as “Free”. The kinetics (in minutes) of SREBP-1 binding to the probe in response to treatment with (FIG. 6A). TNF-α (10 ng/ml), (FIG. 6B) sphingomyelinase (100 mUnits) and (FIG. 6C) C2-ceramide ([…]). (FIG. 6D). The cells were treated with either TNF-α (10 ng/ml), sphingomyelinase (100 mUnits) or C2-ceramide (10 μM) for 15 minutes. Supershift assays were then performed with antibodies raised against the DNA binding domain of SREBP-1. The presence or absence of antibody is indicated by (+) and (−) respectively. Pre-immune IgG was used as a control.
Gel mobility shift assays were performed as follows. Each 20 μl reaction mixture contained 8-10 μg of nuclear protein plus a α-[^32P]-labeled 25-base pair oligonucleotide probe containing the SREBP-binding site (14) in binding buffer (10 mM Hepes, pH 7.5, 0.5 mM spermidine, 0.15 mM EDTA, 10 mM dithiothreitol, 0.35 mM sucrose). The reaction mixture was incubated at room temperature for 15 min and loaded directly onto a 6.5% polyacrylamide (49:0.6 acrylamide/bisacrylamide) gel in a buffer of 25 mM Tris borate (pH 8.0), 0.25 mM EDTA. In some experiments, antisera specific for SREBP or preimmune sera were added to reaction mixtures to determine the composition of protein-probe complexes. For these “supershift” assays, extracts were incubated with 1 μl of preimmune sera or an equal volume of anti-SREBP antisera at 4° C. for 30 min prior to addition of α-[^32P]-labeled probe. In all experiments, proteins were separated by electrophoresis at 200 V for 2 h at room temperature. Gels were dried and exposed to Kodak XAR film with intensifying screens. Assays were repeated with nuclear extracts obtained from three unique experiments and evaluated by phosphoimage analysis to ensure reproducibility of results.

Protocol for HH-25 cells: Cells were treated with either TNF-α, sphingomyelinase or C2-ceramide for 1 hour at concentrations identical to those used in the SREBP-1 maturation studies. The cells were then washed twice with minimal essential medium and refed with media A for 6 hours. […] Genomic DNA was electrophoresed and stained with ethidium bromide.

Compound: CCCCCCCCCCCCCCC[C@@H](O)[C@H](CO)NC(C)=O [C2-dihydroceramide, reference compound]
- induction of SREBP-1 maturation (increase in mature SREBP-1), in words (SREBP-1 [1]): could not be induced

Compound: PDGF
- induction of SREBP-1 maturation (increase in mature SREBP-1), in words (SREBP-1 [1]): could not be recapitulated

Compound: Sphingomyelinase
- decrease in the precursor to mature ratio (SREBP-1 [1]; 250 milliunits of sphingomyelinase activity): 80%
- increase in mass of the mature form of SREBP-1 (SREBP-1 [1]; after 15 minutes of treatment, sterol supplemented media): 2.5 fold
- persistence of the increase in mature SREBP-1 (SREBP-1 [1]; after 60 minutes): persisted after 60 minutes
- subcellular localization of SREBP-1 (staining pattern) (SREBP-1 [2]): intense nuclear staining and little extra-nuclear staining
- amount of probe bound (electrophoretically retarded) by mature SREBP-1 (SREBP-1 [3]): increases
- induction of apoptosis (160 bp DNA ladder) (HH-25 cells): did not induce apoptosis
